Data reported in article PMC4311625, “Structural determinants for binding to angiotensin converting enzyme 2 (ACE2) and angiotensin receptors 1 and 2” (Frontiers in Pharmacology, 2015).
Ends that are not written are not given here.

Columns and labels:
[1] = molecular target: T1, ACE2 (Homo sapiens, UniProt Q9BYF1); assay: ACE2 quenched fluorescence substrate (QFS) inhibition assay; format: biochemical; conditions: QFS assay, pH 6.5, 37 °C, 1 h, value ± spread; for Inhibition (%) of ACE2, AngII chimeras, 100 μM: peptide 100 μM
T1 sequence (Q9BYF1 18-805, species assumed): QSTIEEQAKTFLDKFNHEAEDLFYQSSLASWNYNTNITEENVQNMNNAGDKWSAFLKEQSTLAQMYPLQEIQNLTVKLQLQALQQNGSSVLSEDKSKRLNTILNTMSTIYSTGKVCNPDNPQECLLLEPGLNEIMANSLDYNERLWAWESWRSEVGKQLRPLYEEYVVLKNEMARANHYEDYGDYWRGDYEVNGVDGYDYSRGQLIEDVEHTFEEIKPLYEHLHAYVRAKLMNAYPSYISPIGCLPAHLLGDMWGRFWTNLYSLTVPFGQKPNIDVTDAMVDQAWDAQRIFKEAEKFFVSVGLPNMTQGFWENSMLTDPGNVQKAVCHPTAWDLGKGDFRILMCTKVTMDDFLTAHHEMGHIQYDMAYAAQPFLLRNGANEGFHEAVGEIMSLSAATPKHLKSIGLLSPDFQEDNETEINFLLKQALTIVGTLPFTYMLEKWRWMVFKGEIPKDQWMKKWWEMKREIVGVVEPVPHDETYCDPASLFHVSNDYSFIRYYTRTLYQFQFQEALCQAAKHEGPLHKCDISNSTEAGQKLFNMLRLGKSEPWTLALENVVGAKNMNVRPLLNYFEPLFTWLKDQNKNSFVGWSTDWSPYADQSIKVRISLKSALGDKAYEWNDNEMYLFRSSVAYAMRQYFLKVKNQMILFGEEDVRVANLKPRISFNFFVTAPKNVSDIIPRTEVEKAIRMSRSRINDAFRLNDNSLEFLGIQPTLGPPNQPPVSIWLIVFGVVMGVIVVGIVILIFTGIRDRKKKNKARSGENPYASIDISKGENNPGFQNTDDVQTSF
Method: Angiotensin converting enzyme 2 QFS assays were performed for 1 h in 50 uM QFS, 1 M NaCl, 100 mM Tris-Cl, pH 6.5 at 37∘C on a BMG LabTechnologies (Offenburg, Germany), FLUOStar Optima in a 96 well-plate. Subsequent data analysis determined the inhibition of native AngII, its analogs and C-terminal peptides compared to the ACE2 QFS substrate [MCA-APK(DNP)-OH, [Vickers et al., 2002]]. […] Three controls were included in each ACE2 QFS assay; AngII (100 and 10 μM), IHPF (100 μM) and a known ACE2 inhibitor (1 nM; Millennium Pharmaceuticals, Cambridge, MA, USA). QFS assay results were accepted when ACE2 inhibition by AngII (10 μM) was 80 ± 5%, IHPF was 65 ± –5% and the ([Qian et al., 1999]) ‘Millennium Inhibitor’ was 70 ± –5%. Acceptable coefficients of variation (CV; standard deviation/mean × 100) for sample triplicates were <7%.
A library of 40 tetrapeptides based on the four C-terminal residues of Ang II (Ile-His-Pro-Phe/IHPF) was generated and screened for ACE2 binding at 100 μM in order to identify key residues of the C-terminus of Ang II involved in binding to the ACE2 active site. […] Several substitutions (Val, Tyr, Ala, Gly, Phe, Trp, Pro, His, Ile, and Leu) were made in order to further probe the highly hydrophobic and cyclic specificity of the C-terminus of Ang II. A β-napthalene amino acid (Nth) derivative was used as a highly hydrophobic non-natural cyclic residue substitute, and Arg and Lys were substituted for histidine at the second position from the N-terminus of the tetrapeptide to determine if positive charge or other structural or positional requirements were important.

[2] = molecular target: T1, ACE2; assay: LC–MS ACE2 proteolytic cleavage assay; format: in vitro ADME; conditions: for Cleavage (%) by ACE2, 10 μM: peptide 10 μM incubated with ACE2 at 37 °C; for Cleavage (%) by ACE2, 10 μM / Cleavage (%) by ACE2, 100 μM: typically 4-5 h (5 h); for Cleavage (%) by ACE2, 100 μM: peptide 100 μM incubated with ACE2 at 37 °C
Method: The first hour of the incubation was performed in the Fluorostar Optima plate reader in order to confirm previously observed level of inhibition, then for the remaining time the samples were transferred to small microfuge tubes and incubated in a water bath. The extent of ACE2 cleavage was assessed by LC–MS on an Agilent capillary HP1100, MSD VL3000 Ion-Trap system.

[3] = molecular target: T2, AT1R (Rattus norvegicus, UniProt P25095); assay: Whole cell competition binding with [125I]-Ang II, AT1R-transfected HEK-293 cells; conditions: relative binding, displacement of 125I-Ang II in AT1R-transfected HEK-293 cells; 100 nM (Table 6)
T2 construct: HA; expressed in transfected cells
T2 sequence (P25095 1-359): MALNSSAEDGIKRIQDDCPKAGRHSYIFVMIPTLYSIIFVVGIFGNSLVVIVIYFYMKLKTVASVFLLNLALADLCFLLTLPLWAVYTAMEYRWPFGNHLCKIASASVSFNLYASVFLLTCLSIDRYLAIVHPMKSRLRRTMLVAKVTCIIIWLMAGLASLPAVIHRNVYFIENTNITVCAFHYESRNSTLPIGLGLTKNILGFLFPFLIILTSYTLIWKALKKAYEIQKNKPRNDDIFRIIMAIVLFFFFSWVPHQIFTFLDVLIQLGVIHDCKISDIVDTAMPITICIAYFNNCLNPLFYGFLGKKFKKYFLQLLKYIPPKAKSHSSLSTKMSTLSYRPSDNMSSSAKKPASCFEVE
Method: The generation of plasmids expressing HA-tagged versions of the AT1R and AT2R have been previously described [Qian et al. (1999)], [D’Amore et al. (2005)]. HEK-293 cells in 12 well-plates were transfected with either AT1R or AT2R plasmids (0.6 μg/well) using lipofectAMINE (4⋅8 μl/well), as previously described [Thomas et al. (1998)] and stably expressing clones obtained by selection with G418 (1 mg/ml) and limiting dilution.

[4] = system: AT2R; assay: Whole cell competition binding with [125I]-Ang II, AT2R-transfected HEK-293 cells; conditions: relative binding, displacement of 125I-Ang II in AT2R-transfected HEK-293 cells; 100 nM (Table 6)
Method: The generation of plasmids expressing HA-tagged versions of the AT1R and AT2R have been previously described [Qian et al. (1999)], [D’Amore et al. (2005)]. HEK-293 cells in 12 well-plates were transfected with either AT1R or AT2R plasmids (0.6 μg/well) using lipofectAMINE (4⋅8 μl/well), as previously described [Thomas et al. (1998)] and stably expressing clones obtained by selection with G418 (1 mg/ml) and limiting dilution. HEK clones expressing either AT1R or AT2R were plated in 12 well-plates for whole cell competition binding assays using the non-selective Ang II ligand, [^125I]-Ang II and selected concentrations of Ang II, PD123319 (an AT2-selective ligand) and the various β-substituted Ang II peptides. Non-linear regression of the data was achieved using GraphPad Prism (GraphPad Software Inc., San Diego, CA, USA) to determine relative displacement of chimeric Ang II analogs as compared to ^125I-Ang II in either AT1R- or AT2R- transfected HEK-293 cells.

Row | Substance | Inhibition (%) of ACE2, AngII chimeras, 1 μM ([1]; peptide 1 μM) | Inhibition (%) of ACE2, AngII chimeras, 10 μM ([1]; peptide 10 μM) | Inhibition (%) of ACE2, AngII chimeras, 10 μM ([1]; peptide 10 μM, listed as DRVYI YPβF) [%] | Inhibition (%) of ACE2, AngII chimeras, 100 μM [1] [%] | Cleavage (%) by ACE2, 10 μM ([2]; LC–MS) [%] | Cleavage (%) by ACE2, 100 μM ([2]; LC–MS) | Cleavage (%) by ACE2, 100 μM ([2]; LC–MS, listed as DRVYI YPβF) [%] | AT1R binding (%) [3] [%] | AT2R binding (%) [4] [%] | Cleavage (%) by ACE2, 100 μM ([2]; LC–MS, listed as DRVYI YβPF) [%] | inhibition at 0.1 µM ([1]; peptide 0.1 μM, read-out: Inhibition (%) of ACE2, AngII chimeras, 0.1 μM) [%] | inhibition at 1 µM ([1]; peptide 1 μM, read-out: Inhibition (%) of ACE2, AngII chimeras, 1 μM) [%] | inhibition at 10 µM ([1]; peptide 10 μM, read-out: Inhibition (%) of ACE2, AngII chimeras, 10 μM) [%] | fold less cleavage by ACE2 compared to native Ang II ([2]; 10 μM, over 5 h) | Cleavage (%) by ACE2, 1 μM ([2]; peptide 1 μM incubated with ACE2 at 37 °C, typically 4-5 h, LC–MS) [%] | Cleavage (%) by ACE2, 100 μM ([2]; LC–MS, listed as DRVY VYβPF) [%]
1 | DRVYIYPβF | –1 ± 6.8% | completely abolished | 0 ± 5 | 53 ± 1.9 | 0 ± 0 | complete resistance to proteolytic cleavage | 0 ± 0 | 30 | 25 | – | – | – | – | – | – | –
2 | DRVYIYβPF | –4 ± 9.8% | 10 ± 5.8% | – | 72 ± 1.5 | 0 ± 0 | complete resistance to proteolytic cleavage | – | 0 | 80 | 0 ± 0 | – | – | – | – | – | –
3 | DRVYVYPF | – | – | – | – | 9 ± 0.3 | – | – | – | – | – | 31 ± 3.5 | 84 ± 2.7 | 98 ± 0.3 | approximately 4 fold | 64 | –
4 | DRVYVYPβF | 2 ± 3.6% | 15 ± 9% | – | 59 ± 2.1 | – | complete resistance to proteolytic cleavage | – | 0 | 25 | – | – | – | – | – | – | –
5 | DRVYVYβPF | 0 ± 11.4% | 42 ± 4.4% | – | 90 ± 0.6 | 0 ± 0 | complete resistance to proteolytic cleavage | – | 0 | 75 | – | – | – | – | – | – | 0 ± 0
